Experimental data: ChEMBL document CHEMBL1148809, “Biological evaluation, structure-activity relationships, and three-dimensional quantitative structure-activity relationship studies of dihydro-beta-agarofuran sesquiterpenes as modulators of P-glycoprotein-dependent multidrug resistance” (J Med Chem, 2007)

What was measured:
[1] = biological target: ATP-dependent translocase ABCB1 (Homo sapiens, UniProt P08183); assay: (§1) Inhibition of human Pgp-mediated DNR transport in NIH3T3 cells by microplate assay; assay type: cell-based, Mus musculus; details: read-out: Ki
ATP-dependent translocase ABCB1, sequence (P08183 whole entry): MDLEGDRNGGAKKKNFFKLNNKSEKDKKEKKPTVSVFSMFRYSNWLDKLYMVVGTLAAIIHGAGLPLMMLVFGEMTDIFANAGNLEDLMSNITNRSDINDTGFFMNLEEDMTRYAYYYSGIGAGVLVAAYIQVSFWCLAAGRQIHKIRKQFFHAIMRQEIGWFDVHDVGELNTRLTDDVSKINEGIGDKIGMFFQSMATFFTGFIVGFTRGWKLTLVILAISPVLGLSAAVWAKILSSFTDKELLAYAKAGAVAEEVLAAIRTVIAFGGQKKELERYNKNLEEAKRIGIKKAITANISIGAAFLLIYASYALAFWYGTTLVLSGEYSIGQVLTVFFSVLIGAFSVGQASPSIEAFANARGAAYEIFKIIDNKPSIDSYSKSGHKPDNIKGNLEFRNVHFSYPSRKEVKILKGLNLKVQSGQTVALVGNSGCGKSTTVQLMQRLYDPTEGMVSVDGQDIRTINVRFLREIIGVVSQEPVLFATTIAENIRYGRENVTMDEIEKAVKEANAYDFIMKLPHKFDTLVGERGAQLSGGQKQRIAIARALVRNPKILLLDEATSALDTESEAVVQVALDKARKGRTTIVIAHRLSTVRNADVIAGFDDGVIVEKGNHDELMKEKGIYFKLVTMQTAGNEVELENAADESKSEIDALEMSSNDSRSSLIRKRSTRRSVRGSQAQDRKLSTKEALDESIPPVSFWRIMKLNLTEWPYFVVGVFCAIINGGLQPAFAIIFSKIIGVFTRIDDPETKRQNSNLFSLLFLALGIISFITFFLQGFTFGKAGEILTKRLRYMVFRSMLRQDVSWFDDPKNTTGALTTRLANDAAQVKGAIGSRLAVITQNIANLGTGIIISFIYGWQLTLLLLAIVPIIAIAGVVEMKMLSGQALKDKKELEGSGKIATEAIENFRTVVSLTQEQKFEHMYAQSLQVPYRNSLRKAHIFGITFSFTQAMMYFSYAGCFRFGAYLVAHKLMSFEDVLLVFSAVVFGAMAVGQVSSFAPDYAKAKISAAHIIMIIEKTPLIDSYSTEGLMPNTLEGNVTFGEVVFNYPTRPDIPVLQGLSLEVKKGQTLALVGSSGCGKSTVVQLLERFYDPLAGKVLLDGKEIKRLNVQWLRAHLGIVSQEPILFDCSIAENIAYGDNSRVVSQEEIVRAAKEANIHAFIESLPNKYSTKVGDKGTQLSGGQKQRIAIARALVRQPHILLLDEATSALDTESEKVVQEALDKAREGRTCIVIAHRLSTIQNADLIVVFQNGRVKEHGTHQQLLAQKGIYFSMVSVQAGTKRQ

[2] = Partition coefficient, log P of the compound; assay type: physicochemical; details: octanol/water; read-out: LogP
P-gp (ABCB1) = P-gp (ABCB1) (Homo sapiens, UniProt P08183); assay: as §1; assay type: cell-based, Mus musculus; details: mouse, NIH3T3 cells expressing human P-gp, probe DNR; read-out: Imax
P-gp (ABCB1), sequence (P08183 whole entry): as above

## CC(=O)O[C@H]1C[C@@](C)(O)[C@]23OC(C)(C)[C@H](C[C@H](OC(=O)c4ccco4)[C@]2(C)[C@H]1OC(C)=O)[C@H]3OC(C)=O
[1]
  Ki: 100 µM
[2]
  logP: 3.8

## CC(=O)O[C@H]1[C@H](OC(=O)c2cccnc2)[C@@]2(C)[C@@H](OC(=O)c3ccccc3)[C@@H](OC(=O)c3ccccc3)[C@@H]3C[C@]2(OC3(C)C)[C@](C)(O)[C@H]1OC(C)=O
[1]
  Ki: 1.45 µM
P-gp (ABCB1)
  Emax: 100%
[2]
  logP: 7.5

## CC(=O)O[C@H]1[C@@H](O)[C@H](OC(=O)c2ccccc2)[C@@]2(C)[C@@H](OC(=O)/C=C/c3ccccc3)C[C@@H]3C[C@]2(OC3(C)C)[C@@H]1C
[1]
  Ki: 4.25 µM
P-gp (ABCB1)
  Emax: 63.7%
[2]
  logP: 6.2

## CC(=O)O[C@@H]1C[C@@](C)(O)[C@@]23C[C@@H](C[C@H](OC(=O)/C=C/c4ccccc4)[C@]2(C)[C@H]1OC(=O)c1ccccc1)C(C)(C)O3
[1]
  Ki: 7.61 µM
P-gp (ABCB1)
  Emax: 100%
[2]
  logP: 6.5

## CC(=O)O[C@@H]1C[C@@](C)(O)[C@@]23C[C@@H](C[C@H](OC(=O)c4ccccc4)[C@]2(C)[C@H]1OC(=O)c1ccccc1)C(C)(C)O3
[1]
  Ki: 7.59 µM
P-gp (ABCB1)
  Emax: 89.8%
[2]
  logP: 6.6

## C[C@@H]1[C@@H](O)[C@@H](O)[C@H](OC(=O)c2ccccc2)[C@@]2(C)[C@@H](OC(=O)/C=C/c3ccccc3)C[C@@H]3C[C@]12OC3(C)C
[1]
  Ki: 6.94 µM
P-gp (ABCB1)
  Emax: 76.6%
[2]
  logP: 6

## CC(=O)O[C@H]1[C@@H]2C[C@@]3(OC2(C)C)[C@](C)([C@H]1OC(=O)c1ccccc1)[C@@H](OC(=O)c1cccnc1)[C@H](OC(C)=O)[C@H](OC(=O)c1ccccc1)[C@@]3(C)O
[1]
  Ki: 1.36 µM
P-gp (ABCB1)
  Emax: 100%
[2]
  logP: 7.8

## CC(=O)O[C@H]1[C@H](OC(=O)c2ccccc2)[C@@]2(C)[C@@H](OC(=O)c3ccccc3)[C@@H](OC(=O)c3ccccc3)[C@@H]3C[C@]2(OC3(C)C)[C@](C)(O)[C@H]1OC(C)=O
[1]
  Ki: 0.73 µM
P-gp (ABCB1)
  Emax: 98.7%
[2]
  logP: 8.8

## CC(=O)O[C@@H]1[C@H](OC(C)=O)[C@@H](C)[C@@]23C[C@@H](C[C@H](OC(=O)/C=C/c4ccccc4)[C@]2(C)[C@H]1OC(=O)c1ccccc1)C(C)(C)O3
[1]
  Ki: 2.72 µM
P-gp (ABCB1)
  Emax: 75.8%
[2]
  logP: 7.4

## CC(=O)O[C@H]1[C@H](OC(=O)/C=C/c2ccccc2)[C@@]2(C)[C@@H](OC(=O)c3ccccc3)C[C@@H]3C[C@]2(OC3(C)C)[C@](C)(O)[C@H]1OC(=O)c1cccnc1
[1]
  Ki: 2.07 µM
P-gp (ABCB1)
  Emax: 95.2%
[2]
  logP: 7.6

## CC(=O)O[C@H]1[C@H](OC(=O)c2ccccc2)[C@@]2(C)[C@@H](OC(=O)/C=C/c3ccccc3)C[C@@H]3[C@@H](OC(C)=O)[C@]2(OC3(C)C)[C@](C)(O)[C@H]1OC(=O)c1cccnc1
[1]
  Ki: 25 µM
P-gp (ABCB1)
  Emax: 100%
[2]
  logP: 8

## CC(=O)O[C@H]1[C@H](OC(=O)c2ccccc2)[C@@]2(C)[C@@H](OC(=O)c3ccccc3)C[C@@H]3[C@@H](OC(C)=O)[C@]2(OC3(C)C)[C@](C)(O)[C@H]1OC(=O)c1cccnc1
[1]
  Ki: 3.75 µM
P-gp (ABCB1)
  Emax: 98.8%
[2]
  logP: 8

## CC(=O)O[C@H]1[C@@H](OC(=O)c2ccco2)C[C@@](C)(O)[C@]23OC(C)(C)[C@H](C[C@H](OC(=O)c4ccco4)[C@]12C)[C@H]3OC(=O)c1ccco1
[1]
  Ki: 2.19 µM
P-gp (ABCB1)
  Emax: 80.5%
[2]
  logP: 6.5

## CC(=O)OC[C@]12[C@H](OC(=O)c3ccccc3)[C@H](OC(=O)c3ccccc3)[C@@H]3[C@@H](OC(C)=O)[C@]1(OC3(C)C)[C@H](C)C[C@H](OC(=O)c1ccccc1)[C@@H]2OC(=O)c1ccccc1
[1]
  Ki: 1.98 µM
P-gp (ABCB1)
  Emax: 29.3%

## CC(=O)O[C@@H]1[C@H](O)[C@@H](C)[C@@]23C[C@@H](C[C@H](OC(=O)/C=C/c4ccccc4)[C@]2(C)[C@H]1OC(=O)c1ccccc1)C(C)(C)O3
[1]
  Ki: 8.46 µM
P-gp (ABCB1)
  Emax: 82.9%
[2]
  logP: 6.3

## CC(=O)O[C@H]1[C@@H]2C[C@@]3(OC2(C)C)[C@](C)([C@H]1OC(=O)c1ccccc1)[C@@H](OC(=O)c1ccccc1)[C@H](OC(C)=O)[C@H](OC(C)=O)[C@@]3(C)O
[1]
  Ki: 1.27 µM
P-gp (ABCB1)
  Emax: 88.7%
[2]
  logP: 6.8
